# Measurements reported in patent US20210198647A1, “Enhancers of Neurolysin Activity” (Texas Tech University System, priority 2018, published 2021).
# “And” between values parts separate entries of the source, which are not always exact repeats. Equal values may be shown once. Read-outs that look alike come from different tables or passages of the source. Square brackets hold non-standard residues; d marks the D form. Peptide text beside a SMILES is read from it. * marks the point of attachment. NHPhenethyl = c1ccc(CCN*)cc1; Boc = CC(C)(C)OC(=O)*
# Biological target: T1, Neurolysin (Nln) (Rattus norvegicus, UniProt P42676)
# T1 construct: polyhistidine (N); made in house; host or cells: Escherichia coli (pBAD/His vector), if the rat enzyme of b61 was used
# T1 sequence (P42676 38-704): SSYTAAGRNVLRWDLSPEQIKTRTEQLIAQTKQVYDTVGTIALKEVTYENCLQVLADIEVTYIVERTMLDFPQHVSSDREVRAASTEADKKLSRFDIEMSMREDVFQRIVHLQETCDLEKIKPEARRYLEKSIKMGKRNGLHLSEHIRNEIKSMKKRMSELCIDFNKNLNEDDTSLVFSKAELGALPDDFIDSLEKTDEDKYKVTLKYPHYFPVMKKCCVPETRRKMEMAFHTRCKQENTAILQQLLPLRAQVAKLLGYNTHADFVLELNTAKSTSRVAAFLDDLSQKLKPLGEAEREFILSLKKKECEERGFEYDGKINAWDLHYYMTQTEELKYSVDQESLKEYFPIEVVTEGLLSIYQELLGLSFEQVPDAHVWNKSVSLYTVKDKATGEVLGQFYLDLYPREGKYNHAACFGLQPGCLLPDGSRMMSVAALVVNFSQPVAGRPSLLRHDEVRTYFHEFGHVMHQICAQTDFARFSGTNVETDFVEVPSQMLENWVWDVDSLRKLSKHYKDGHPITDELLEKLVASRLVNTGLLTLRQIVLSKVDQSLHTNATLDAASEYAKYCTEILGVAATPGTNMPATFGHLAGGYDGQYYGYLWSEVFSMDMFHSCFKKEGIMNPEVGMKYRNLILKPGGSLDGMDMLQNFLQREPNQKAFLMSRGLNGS
# Test: Nln activation in isolated enzyme assay (A50, Amax)
# Type: biochemical
# Details: for EC50: read-out: A50 (concentration required to activate Nln by 50%)
# [1] = 100% = normal enzyme turnover, 95% CI in parentheses
Amax (maximum % activation achieved),SMILES,Amax (maximum % activation achieved) [1],other results
,CC(C)(C)OC(=O)N[C@@H](Cc1c[nH]cn1)C(=O)NCCc1ccccc1,Inactive,A50 (concentration required to activate Nln by 50%) (95% CI in parentheses): Inactive
,CC(C)(C)OC(=O)N[C@@H](Cc1c[nH]cn1)C(=O)NCCc1c[nH]c2ccccc12,Inactive,A50 (concentration required to activate Nln by 50%) (95% CI in parentheses): Inactive
311 (298.6 to 325.7) %,NC(Cc1c[nH]cn1)C(=O)NCCc1cc2ccccc2[nH]1 (racemic) [(±)PT-1-173 RACEMIC],,
598.8 (532.8 to 692.9) %,"N[C@H](Cc1c[nH]cn1)C(=O)NCc1ccc(C(F)(F)F)cc1 (single isomer, unassigned) [AB1-17-2]",,
643 (588.8 to 714) %,"N[C@H](Cc1c[nH]cn1)C(=O)NCCc1ccc(C(F)(F)F)cc1 (single isomer, unassigned) [AB-1-8-2]",,
,"N[C@@H](Cc1c[nH]cn1)C(=O)Nc1ccccc1 (single isomer, unassigned) [DF-5-2A]",139.8 (124.7 to 158.4) %,EC50 (95% CI in parentheses): 7.74 µM
,"N[C@@H](Cc1c[nH]cn1)C(=O)N[C@@H](Cc1ccccc1)C(=O)O (stereo in doubt) [Compound 3, His-Phe]",573 (547.9 to 602.7) %,"EC50 (95% CI in parentheses): 130 µM; Amax (maximum % activation achieved) (100% = normal enzyme turnover, 95% CI in parentheses, listed as His-Phe): 573 (547.9 to 602.7) %"
438.4 (379.4 to 520.4) %,N[C@@H](Cc1c[nH]cn1)C(=O)NCCc1ccc(C(F)(F)F)cc1 [AB 3-2-2],,
,N[C@@H](Cc1ccccn1)C(=O)NCCc1ccccc1 [AB-1-3-2],Inactive,A50 (concentration required to activate Nln by 50%) (95% CI in parentheses): Inactive
,COc1ccc(CCNC(=O)[C@@H](N)Cc2c[nH]cn2)cc1 [AB-1-4-2],544 (492.2 to 609.4) %,
494.4 (476.7 to 512.9) %,N[C@@H](Cc1c[nH]cn1)C(=O)NCc1cccc(C(F)(F)F)c1 [AB-1-6-2],,
184.4 (169.4 to 201.5) %,N[C@H](Cc1cnc[nH]1)C(=O)NCc1cccc(C(F)(F)F)c1 [AB-1-9-2],,
477.1 (444 to 516) %,COc1cccc(CNC(=O)[C@H](N)Cc2cnc[nH]2)c1 [AB-1-14-2],,
703.5 (588.9 to 915.6) %,COc1ccc(CNC(=O)[C@H](N)Cc2cnc[nH]2)cc1 [AB-1-16-2],,
,N[C@@H](Cc1c[nH]cn1)C(=O)N[C@@H](Cc1ccccc1)C(=O)NCCc1ccccc1 [AB-2-5-4] (H-His-Phe-NHPhenethyl),177.6 (158.7 to 198.1) %,EC50 (95% CI in parentheses): 5.4 µM
,N[C@H](Cc1c[nH]cn1)C(=O)NCCc1ccccc1 [AB-2-7-2],407 (382.7 to 434.9) %,
,"N[C@@H](Cc1c[nH]cn1)C(=O)N[C@@H](Cc1ccc(O)cc1)C(=O)O [Compound 1, Histidine-tyrosine] (H-His-Tyr-OH)",467 (424.9 to 516.9) %,"Amax (maximum % activation achieved) (100% = normal enzyme turnover, 95% CI in parentheses, listed as His-Tyr): 467 (424.9 to 516.9) %"
,N[C@@H](Cc1c[nH]cn1)C(=O)N[C@H](Cc1c[nH]cn1)C(=O)O [Compound 2],202.8 (192.2 to 213.4) %,
,"N[C@@H](Cc1ccc(O)cc1)C(=O)N[C@H](Cc1c[nH]cn1)C(=O)O [Compound 4a, H-Try-His-OH] (H-Tyr-[dH]-OH)",Inactive,Nln activation (in words): complete amelioration of Nln activation; A50 (concentration required to activate Nln by 50%) (95% CI in parentheses): Inactive
,CC(C)(C)OC(=O)N[C@@H](Cc1c[nH]cn1)C(=O)N[C@H](Cc1ccccc1)C(=O)O [Compound 4b] (Boc-His-[dF]-OH),,Nln activation (in words): inactive
,"N[C@@H](Cc1c[nH]cn1)C(=O)NCCc1ccccc1 [Compound 4c, (S)-2-amino-3-(1H-imidazol-4-yl)-N-phenethylpropanamide]",337.2 (302-378.6) %,
,"N[C@H](Cc1c[nH]cn1)C(=O)NCCc1ccccc1 [Compound 4d, (R)-2-amino-3-(1H-imidazol-4-yl)-N-phenethylpropanamide]",294.6 (278.0 to 313) %,
,"COc1ccc(CCNC(=O)[C@@H](N)Cc2c[nH]cn2)cc1 [Compound 4e, (S)-2-amino-3-(1H-imidazol-4-yl)-N-(4-methoxyphenethyl)propanamide]",339.4 (314.2 to 369.3) %,
,"COc1ccc(CCNC(=O)[C@H](N)Cc2c[nH]cn2)cc1 [Compound 4f, (R)-2-amino-3-(1H-imidazol-4-yl)-N-(4-methoxyphenethyl)propanamide]",378.3 (350.5 to 411.9) %,
330.1 (313.9 to 347.7) %,"N[C@H](Cc1c[nH]cn1)C(=O)NCCc1ccc(C(F)(F)F)cc1 [Compound 4l, (R)-2-amino-3-(1H-imidazol-4-yl)-N-(4-(trifluoromethyl)phenethyl)propanamide]",,

Amax (maximum % activation achieved),SMILES,Amax (maximum % activation achieved) [1],other results
,"N[C@@H](Cc1c[nH]cn1)C(=O)NCCc1ccc(F)cc1 [Compound 4m, (S)-2-amino-N-(4-fluorophenethyl)-3-(1H-imidazol-4-yl)propanamide]",323.1 (311.4 to 335.6) %,EC50 (95% CI in parentheses): 28 µM and 27.9 µM
267.5 (250.1 to 287.1) %,"N[C@H](Cc1c[nH]cn1)C(=O)NCCc1ccc([N+](=O)[O-])cc1 [Compound 4p, (R)-2-amino-3-(1H-imidazol-4-yl)-N-(4-nitrophenethyl)propanamide]",,
385.8 (363.8 to 410.5) %,COc1ccccc1CNC(=O)[C@@H](N)Cc1c[nH]cn1 [Compound 5d],,
327.5 (309.7 to 348.2) %,COc1cccc(CNC(=O)[C@@H](N)Cc2c[nH]cn2)c1 [Compound 5f],,
319.1 (296.3 to 344.3) %,"N[C@H](Cc1c[nH]cn1)C(=O)NCc1ccc(C(F)(F)F)cc1 [Compound 5i, (R)-2-amino-3-(1H-imidazol-4-yl)-N-(4-(trifluoromethyl)benzyl)propanamide]",,
345.8 (317.5 to 378.3) %,"N[C@H](Cc1c[nH]cn1)C(=O)NCc1ccccc1C(F)(F)F [Compound 5k, (R)-2-amino-3-(1H-imidazol-4-yl)-N-(2-(trifluoromethyl)benzyl)propanamide]",,
282 (258.4 to 309.1) %,N[C@H](Cc1c[nH]cn1)C(=O)NCc1cccc(C(F)(F)F)c1 [Compound 5m],,
293 (276.5-310.7) %,"N[C@@H](Cc1c[nH]cn1)C(=O)NCc1ccc(F)cc1 [Compound 5n, (S)-2-amino-N-(4-fluorobenzyl)-3-(1H-imidazol-4-yl)propanamide]",,
320.5 (299.7 to 343.9) %,"N[C@H](Cc1c[nH]cn1)C(=O)NCc1ccc(F)cc1 [Compound 5o, (R)-2-amino-N-(4-fluorobenzyl)-3-(1H-imidazol-4-yl)propanamide]",,
310 (287.2 to 336.1) %,N[C@@H](Cc1c[nH]cn1)C(=O)NCc1ccc(OC(F)(F)F)cc1 [Compound 5p],,
337.1 (312 to 364.9) %,"N[C@H](Cc1c[nH]cn1)C(=O)NCc1ccc(OC(F)(F)F)cc1 [Compound 5q, (R)-2-amino-3-(1H-imidazol-4-yl)-N-(4-(trifluoromethoxy)benzyl)propanamide]",,
287.5 (277.4 to 298.4) %,N[C@@H](Cc1c[nH]cn1)C(=O)NCc1ccc(SC(F)(F)F)cc1 [Compound 5r],,
,"N[C@@H](Cc1c[nH]cn1)C(=O)Nc1ccccc1 [Compound 6a, (S)-2-amino-3-(1H-imidazol-4-yl)-N-phenylpropanamide]",467% and 466.6%,EC50 (95% CI in parentheses): 252 µM
,"N[C@H](Cc1c[nH]cn1)C(=O)Nc1ccccc1 [Compound 6b, (R)-2-amino-3-(1H-imidazol-4-yl)-N-phenylpropanamide]",440.3 (414.9 to 470.4) %,EC50 (95% CI in parentheses): 114 µM
,"N[C@@H](Cc1c[nH]cn1)C(=O)NCCCc1ccccc1 [Compound 7a, (S)-2-amino-3-(1H-imidazol-4-yl)-N-(3-phenylpropyl)propanamide]",288.1 (273.6 to 303.8) %,
,"N[C@H](Cc1c[nH]cn1)C(=O)NCCCc1ccccc1 [Compound 7b, (R)-2-amino-3-(1H-imidazol-4-yl)-N-(3-phenylpropyl)propanamide]",281.8 (269.9-294.5) %,
,"N[C@@H](Cc1c[nH]cn1)C(=O)NCCCCc1ccccc1 [Compound 8a, (S)-2-amino-3-(1H-imidazol-4-yl)-N-(4-phenylbutyl)propanamide]",328 (309-351) %,
,"N[C@H](Cc1c[nH]cn1)C(=O)NCCCCc1ccccc1 [Compound 8b, (R)-2-amino-3-(1H-imidazol-4-yl)-N-(4-phenylbutyl)propanamide]",233.8 (215.9 to 254.8) %,
,"N[C@H](Cc1c[nH]cn1)C(=O)NCc1ccc2ccccc2c1 [Compound 10b, (R)-2-amino-3-(1H-imidazol-4-yl)-N-(naphthalen-2-ylmethyl)propanamide]",197.5 (184.9 to 214.8) %,EC50 (95% CI in parentheses): 6.3 µM
,"N[C@H](Cc1c[nH]cn1)C(=O)NCc1cccc2ccccc12 [Compound 10d, (R)-2-amino-3-(1H-imidazol-4-yl)-N-(naphthalen-1-ylmethyl)propanamide]",343 (325.2 to 363.5) %,
,"N[C@H](Cc1c[nH]cn1)C(=O)Nc1cccc2cccnc12 [Compound 11b, (R)-2-amino-3-(1H-imidazol-4-yl)-N-(quinolin-8-yl)propanamide]",255.2 (239.9 to 278.9) %,
,O=C1NC(Cc2c[nH]cn2)C(=O)N2CCCC12 (stereo not drawn) [Cyclo(His-Pro)],Inactive,A50 (concentration required to activate Nln by 50%) (95% CI in parentheses): Inactive
,N[C@@H](Cc1c[nH]cn1)C(=O)NCCc1ccc(F)cc1 [DF-2-2B],323.1 (311.4 to 335.6) %,EC50 (95% CI in parentheses): 27.9 µM
152.2 (137.3 to 171.5) %,N[C@@H](Cc1c[nH]cn1)C(=O)NCc1ccccc1 [DF-3-2B],,
252 (235.6 to 270.5) %,N[C@@H](Cc1c[nH]cn1)C(=O)NCc1ccc(F)cc1 [DF-6-2A],,
